Test results from the OligoGym collection.
“And” between values parts separate entries of the source, which are not always exact repeats. Equal entries are not always repeated. After the bases stand the sugars from the 5' end (letter, count) and the backbone: PS all phosphorothioate, else s phosphorothioate and o phosphodiester by linkage. Methylation of C is not given here. k = constrained ethyl (cEt); d = 2'-deoxy (DNA)

What follows are sequences tested against MALAT1. Conditions: ASO, A431, 0.005 µM.

| Sequence | target mRNA inhibition |
| --- | --- |
| ATATTTAACTTCCCCC (sugars k3 d10 k3, PS) | 30% |
| ATATTTTAAACGGGTC (sugars k3 d10 k3, PS) | 16% |
| ATCACCTTCCGCCGCC (sugars k3 d10 k3, PS) | 15% |
| ATCACCTTCGGTTTAA (sugars k3 d10 k3, PS) | 40% |
| ATCCACTTCTGTGTAG (sugars k3 d10 k3, PS) | 38% |
| ATCCACTTGATCCCAA (sugars k3 d10 k3, PS) | 16% |
| ATCCCAACCGTAACAG (sugars k3 d10 k3, PS) | 13% |
| ATCCCTTTACACCTCA (sugars k3 d10 k3, PS) | 36% |
| ATCTGCGGCCCCCCAG (sugars k3 d10 k3, PS) | -8% |
| ATGAGTATAAGCCTGA (sugars k3 d10 k3, PS) | 55% |
| ATGCACTGGTACACCC (sugars k3 d10 k3, PS) | 24% |
| ATGCTACTCTTCTAAG (sugars k3 d10 k3, PS) | 40% |
| ATGCTAGTCCTCAGGA (sugars k3 d10 k3, PS) | -20% |
| ATGGAAAGCGAGTTCA (sugars k3 d10 k3, PS) | 14% |
| ATGGCTTTGTCTCCGA (sugars k3 d10 k3, PS) | 15% |
| ATTAAATTGATGGGCT (sugars k3 d10 k3, PS) | 20% |
| ATTAATGCTAGTCCTC (sugars k3 d10 k3, PS) | 36% |
| ATTACACCAGTCCTTT (sugars k3 d10 k3, PS) | 40% |
| ATTACGCAACTGAGCC (sugars k3 d10 k3, PS) | 16% |
| ATTCAAGCTGAACTAT (sugars k3 d10 k3, PS) | 10% |
| ATTCACCAAGGAGCTG (sugars k3 d10 k3, PS) | 39% |
| ATTCTAGACAGACCTA (sugars k3 d10 k3, PS) | 33% |
| ATTGGTAGCTTTCATT (sugars k3 d10 k3, PS) | 70% and 83% |

| Sequence | target mRNA inhibition |
| --- | --- |
| ATTGGTTACCAATAAT (sugars k3 d10 k3, PS) | 4% |
| ATTGTAGTTAATGTCA (sugars k3 d10 k3, PS) | 50% |
| ATTTATTTCGGCTTCT (sugars k3 d10 k3, PS) | 71% and 90% |
| ATTTGAACCCCGTCCT (sugars k3 d10 k3, PS) | 31% |
| ATTTTAAAAAGGCTCG (sugars k3 d10 k3, PS) | 27% |
| CAAAAAGTAGTTCTTC (sugars k3 d10 k3, PS) | -18% |
| CAAAAGCCCTCTCAGC (sugars k3 d10 k3, PS) | -14% |
| CAAAATCCTGAATGGC (sugars k3 d10 k3, PS) | 10% |
| CAAAATGGCGGACTTT (sugars k3 d10 k3, PS) | 17% |
| CAAACTAAGCTACTAT (sugars k3 d10 k3, PS) | 15% |
| CAAACTGCTTACAGAT (sugars k3 d10 k3, PS) | 31% |
| CAAATTGCACTCGCTC (sugars k3 d10 k3, PS) | 34% |
| CAACAAGTAAGCCCCA (sugars k3 d10 k3, PS) | 0% |
| CAACAATCACTACTCC (sugars k3 d10 k3, PS) | 16% |
| CAACATATTGCCGACC (sugars k3 d10 k3, PS) | -26% |
| CAACTAAGCGAATGGC (sugars k3 d10 k3, PS) | 24% |
| CAACTGGGAATACTCT (sugars k3 d10 k3, PS) | 20% |
| CAACTTGGAAGTTGAT (sugars k3 d10 k3, PS) | 10% |
| CAAGATTGCCCCAACA (sugars k3 d10 k3, PS) | 12% |
| CAAGCATTCCTTCGGA (sugars k3 d10 k3, PS) | 25% |
| CAAGGCACTGATCACT (sugars k3 d10 k3, PS) | 48% |
| CAAGTTAAACTTATCT (sugars k3 d10 k3, PS) | 16% |
| CAATCAAGTCAAGCTC (sugars k3 d10 k3, PS) | 3% |

| Sequence | target mRNA inhibition |
| --- | --- |
| CAATGCACTAAAGATC (sugars k3 d10 k3, PS) | 10% |
| CAATGCCTACCGCACA (sugars k3 d10 k3, PS) | 16% |
| CAATTTACATCACAAC (sugars k3 d10 k3, PS) | 45% |
| CACAAAACCCCCGGAA (sugars k3 d10 k3, PS) | 19% |
| CACAAGGATCCAAGCT (sugars k3 d10 k3, PS) | 18% |
| CACCAAAGACCTCGAC (sugars k3 d10 k3, PS) | 18% |
| CACCAAATTGCACTCG (sugars k3 d10 k3, PS) | 54% and 73% |
| CACCACCTGGAATGGC (sugars k3 d10 k3, PS) | 8% |
| CACCCGGAAATCGGCC (sugars k3 d10 k3, PS) | -1% |
| CACGGGCTGTCTGCTT (sugars k3 d10 k3, PS) | 18% |
| CACTGATCACTTTAGA (sugars k3 d10 k3, PS) | 41% |
| CACTGCCAACTAATTG (sugars k3 d10 k3, PS) | 39% |
| CACTGGTACACCCAGT (sugars k3 d10 k3, PS) | 15% |
| CAGAAAAAGCTTGTTC (sugars k3 d10 k3, PS) | 37% |
| CAGATGCAAGTTAAAC (sugars k3 d10 k3, PS) | 40% |
| CAGCGGTACACTCCTT (sugars k3 d10 k3, PS) | 36% |
| CAGCTCGGGCGAGGCG (sugars k3 d10 k3, PS) | 13% |
| CAGGCTGGTTATGACT (sugars k3 d10 k3, PS) | 26% |
| CAGGGCTTTACTTTCC (sugars k3 d10 k3, PS) | 2% |
| CAGTAGGCCAGACCAA (sugars k3 d10 k3, PS) | 14% |
| CAGTTACACATCCAAA (sugars k3 d10 k3, PS) | 45% |
| CAGTTACTCCAGCATA (sugars k3 d10 k3, PS) | 24% |
| CATAAGTAAGTTCCAG (sugars k3 d10 k3, PS) | 49% |

| Sequence | target mRNA inhibition |
| --- | --- |
| CATACAAACTGCTTAC (sugars k3 d10 k3, PS) | 29% |
| CATACCTTAACATCTT (sugars k3 d10 k3, PS) | 32% |
| CATATTTTAAACGGGT (sugars k3 d10 k3, PS) | -16% |
| CATATTTTGCCCCCAC (sugars k3 d10 k3, PS) | 15% |
| CATCACCGGAATTCGA (sugars k3 d10 k3, PS) | 2% |
| CATCAGTAGTAAGAAT (sugars k3 d10 k3, PS) | 14% |
| CATCCAAACTCTACAT (sugars k3 d10 k3, PS) | 23% |
| CATGGATTTCAAGGTC (sugars k3 d10 k3, PS) | 11% |
| CATTACAGTTCTTGAA (sugars k3 d10 k3, PS) | 41% |
| CATTACGCAACTGAGC (sugars k3 d10 k3, PS) | -1% |
| CATTCAAGCTGAACTA (sugars k3 d10 k3, PS) | 39% |
| CATTCCTTCGGATGCT (sugars k3 d10 k3, PS) | 38% |
| CATTGCCTCTTCATTG (sugars k3 d10 k3, PS) | 36% |
| CATTGGCACACAGCAC (sugars k3 d10 k3, PS) | 21% |
| CATTGGGAGTTACTTG (sugars k3 d10 k3, PS) | 32% |
| CCAAAAGCCTTCTGCC (sugars k3 d10 k3, PS) | 34% |
| CCAACCGTAACAGGCC (sugars k3 d10 k3, PS) | 27% |
| CCAAGATTGCCCCAAC (sugars k3 d10 k3, PS) | 14% |
| CCACCCTCTAAGAGAC (sugars k3 d10 k3, PS) | -17% |
| CCACTCTTGGAAAACG (sugars k3 d10 k3, PS) | 23% |
| CCACTTGATCCCAACT (sugars k3 d10 k3, PS) | 47% |
| CCCACAGGAACAAGTC (sugars k3 d10 k3, PS) | 14% |
| CCCACGGCCCGCACGG (sugars k3 d10 k3, PS) | 14% |

| Sequence | target mRNA inhibition |
| --- | --- |
| CCCATAACTGATCTGA (sugars k3 d10 k3, PS) | 42% |
| CCCATTATATTAGAAA (sugars k3 d10 k3, PS) | 10% |
| CCCCAAAAGCTCTATA (sugars k3 d10 k3, PS) | 8% |
| CCCCAAGACCAAACTG (sugars k3 d10 k3, PS) | -9% |
| CCCCAATGGAGGTATG (sugars k3 d10 k3, PS) | 37% |
| CCCCACGCCAACACAG (sugars k3 d10 k3, PS) | 10% |
| CCCCAGTTCAATACTT (sugars k3 d10 k3, PS) | 25% |
| CCCCAGTTGCCGCCAG (sugars k3 d10 k3, PS) | -18% |
| CCCCATTATATTAGAA (sugars k3 d10 k3, PS) | -6% |
| CCCCCAAGATTGCCCC (sugars k3 d10 k3, PS) | 11% |
| CCCCCCACGGCCCGCA (sugars k3 d10 k3, PS) | 26% |
| CCCCGTCCTGGAAACC (sugars k3 d10 k3, PS) | 21% |
| CCCGCACGGAAATTTT (sugars k3 d10 k3, PS) | 17% |
| CCCGGAACTTTTAAAA (sugars k3 d10 k3, PS) | -7% |
| CCCTAACATGCAATAC (sugars k3 d10 k3, PS) | 14% |
| CCCTCTAAGAGACATT (sugars k3 d10 k3, PS) | 32% |
| CCCTTCAAGCACCGCT (sugars k3 d10 k3, PS) | 28% |
| CCCTTCTAGCTTCAAG (sugars k3 d10 k3, PS) | 38% |
| CCCTTCTATTGGTATT (sugars k3 d10 k3, PS) | 7% |
| CCGCAGGGATTTGAAC (sugars k3 d10 k3, PS) | 2% |
| CCGCTTGAGATTTGGG (sugars k3 d10 k3, PS) | 28% |
| CCGGAATTCGATCACC (sugars k3 d10 k3, PS) | 9% |
